The test system of series [1] is asthmatic mice. Briefly: Airway resistance (Raw) response to methacholine in murine model of asthma. In kind it is in vivo, Balb/cJ mice. The procedure: Balb/cJ mice aged 6 weeks (Jackson Animal Laboratory, Bar Harbor, Maine) were housed under specific pathogen-free conditions and fed a chicken ovalbumin-free diet. The Animal Research Ethics Boards of both the University of Houston and the Baylor College of Medicine approved all experiments reported here. […] Mice were sensitized with subcutaneous injection of 25 μg of ovalbumin adsorbed to aluminum hydroxide on protocol days 2, 9, and 16. Subsequently, mice were given 50 μL of saline solution containing 25 μg of ovalbumin intranasally, on a daily basis, from protocol days 23 through 27. A group of ovalbumin-sensitized saline-challenged mice serves as controls for systemic sensitization and respiratory challenges with ovalbumin. Prior to intranasal administrations, mice were sedated with halothane vapor.
To examine the effects of duration of β-adrenergic ligand therapy on the phenotype of the murine model of asthma, the experimental drugs were administered either acutely or chronically to different groups of asthmatic mice.
Asthmatic mice on acute therapy were given a single intravenous bolus infusion of either β-adrenergic drug or normal saline on protocol day 28, 15 minutes before airway responsiveness to methacholine was determined. […] […] […] These concentrations were chosen based on those producing therapeutic effects in mice in previously published studies. The non-asthmatic mice were fed normal chow.
On protocol day 28, mice were anesthetized, tracheotomized, and connected to a computer-controlled small animal ventilator (Flexivent, Scientific Respiratory Equipment, Inc., Montreal, Canada). Airway resistance (Raw) was measured using the forced oscillation technique. The cellular composition of bronchoalveolar lavage fluid (BALF) was also determined.
To induce airway constriction, a solution containing 150 μg/mL of acetyl-α-methylcholine chloride (methacholine) (Sigma Chemical, St. Louis, Mo.) was infused intravenously at constant rates using a syringe infusion pump (Raze Scientific Instruments, Stanford, Conn.). […] Each methacholine dose was administered for 3 to 5 minutes, during which data were sampled at 1-minute intervals and then averaged.
The complex input impedance of the respiratory system was computed and the value of the real part of respiratory system impedance at 19.75 Hz was taken to reflect the magnitude of airway resistance (Raw). To examine the degree of airway responsiveness of each animal, the values for Raw as a function of methacholine doses were plotted. The largest value for Raw achieved in response to methacholine stimulation was referred to as Rawpeak. For mice that achieved a plateau in the methacholine dose-Raw response curve, the ED50 was calculated by linear interpolation using the GraphPad Prism4 (GraphPad Software, Inc.). […] The Bonferroni test was used to examine the statistical differences between experimental groups. The effects of acute drug treatments on baseline respiratory system mechanics were assessed using a two-tailed paired t-test. A value of P<0.05 was considered significant.
For these experiments, salbutamol was used for chronic administration at 0.5 mg/kg/day with a minipump and for acute administration at 0.15 mg/kg by i.v. bolus 15 minutes prior to challenge. Alprenolol was used at a high dose of 7200 ppm in chow or at a low dose of 720 ppm in chow. Carvedilol was used at a high dose of 2400 ppm in chow or at a low dose of 720 ppm in chow.
The airway resistance (Raw) is plotted as cm H2O ml^−1 s.

A further series has as its target β2-adrenergic receptor (Mus musculus, UniProt P18762). It counts as in vivo, mice. The procedure:
β2-adrenergic receptor numbers were measured in asthmatic mice as follows. […] Mice were sacrificed and lung membranes were isolated as follows. Frozen lung tissue was homogenized in an ice-cold buffer containing 0.32 M sucrose and 25 mM Tris (pH 7.4) using a polytron (Pro 200, Pro Scientific, Inc.). The homogenate was centrifuged at 1000×g for 10 min at 4° C. The resulting supernatant was centrifuged at 40,000×g for 20 min at 4° C. The pellet was suspended in an ice-cold 25 mM Tris-HCl buffer (pH 7.4) and centrifuged at 40,000'g for 20 min at 4° C. The final pellet was suspended in 200 μL of 25 mM Tris-HCl (pH 7.4); membrane protein concentration was determined by BCA protein assay kit. […] The incubation was done at 37° C. for 2 h and terminated by rapid vacuum filtration through glass fiber filters. The filters were washed three times with 250 μL of cold wash buffer (25 mM Tris-HCl, pH 7.4) and the radioactivity determined in a counter. […] Receptor densities are expressed as femtomoles of sites per milligram of protein. Bmax is determined by nonlinear regression of the saturation binding curves.

The subject of series [2] is asthmatic mice. As to the kind of experiment: Combination of carvedilol and salbutamol on airway hyperresponsiveness. In kind it is in vivo, Balb/cJ mice. The settings on record: at the highest dose of methacholine; 28 days treatment. As for the experimental part:
Mice (Balb/cJ) aged 6 weeks were housed under specific pathogen-free conditions and fed a chicken ovalbumin-free diet. Mice were systemically sensitized with ovalbumin adsorbed to aluminum hydroxide. Mice were treated as follows: CAR/SAL 28D=for 28 days mice (n=6-12) were administered carvedilol (2400 ppm in animal chow) and salbutamol (subcutaneous delivery of 0.5 mg/kg/day in an Alzet #2400 osmotic minipump); NTX S/C=mice (n=6-12) no drug treatment for 28 days; CTRL=mice (n=6-12) no drug treatment for 28 days, not subsequently challenged; CARHD 28D=for 28 days mice (n=6-12) were administered carvedilol only (2400 ppm in animal chow); CARHD 28D SAL AC=for 28 days mice (n=6-12) were administered carvedilol (2400 ppm in animal chow) and 15 minutes prior to measuring airway hyperresponsiveness, salbutamol was administered at a dose of 1.2 mg.kg.
To measure airway hyperresponsiveness after 28 days, all mice except the CTRL (control) mice were challenged with ovalbumin and then all mice were anesthetized, tracheotomized, and connected to a Flexivent small animal ventilator to measure airway resistance (Raw) by the forced oscillation technique. To induce airway constriction, a solution containing 150 μg/mL of methacholine was infused using a syringe infusion pump. The methacholine infusion was started at 0.008 mL/min and its rate was doubled stepwise up to a maximum […]. […]

The next series deals with patients with CHF. The settings on record: cited from earlier work.
The conditions of series [3]: healthy volunteers; after 9 d of treatment versus first treatment day; cited from earlier work.
In the next series the target is β2. The settings on record: read-out: K1 values for β2 (first value); cited from earlier work.
A further series concerns the target β3 (Homo sapiens, UniProt P13945). The settings on record: read-out: K1 values for β3; cited from earlier work.
For series [4] the following is noted: in vivo; cited from earlier work.
For series [5] the following is noted: in humans, in the presence of nadolol; cited from earlier work.
For series [6] the following is noted: long-term administration; cited from earlier work.
The conditions of series [7]: in vivo; cited from earlier work. The source holds these as a separate data set.

The structures appear in SMILES notation. pKi: −log10 of the molar value. “Also recorded” adds a separate entry of the source. Where two headings read alike, the source gives them in different places.

We go through five compounds from patent publication US20070276024A1, “Methods for Treating Diseases and Conditions with Inverse Agonists and for Screening for Agents Acting as Inverse Agonists” (Inverseon , Inc., priority 2003, published 2007).

Sequence of β2-adrenergic receptor (P18762 whole entry): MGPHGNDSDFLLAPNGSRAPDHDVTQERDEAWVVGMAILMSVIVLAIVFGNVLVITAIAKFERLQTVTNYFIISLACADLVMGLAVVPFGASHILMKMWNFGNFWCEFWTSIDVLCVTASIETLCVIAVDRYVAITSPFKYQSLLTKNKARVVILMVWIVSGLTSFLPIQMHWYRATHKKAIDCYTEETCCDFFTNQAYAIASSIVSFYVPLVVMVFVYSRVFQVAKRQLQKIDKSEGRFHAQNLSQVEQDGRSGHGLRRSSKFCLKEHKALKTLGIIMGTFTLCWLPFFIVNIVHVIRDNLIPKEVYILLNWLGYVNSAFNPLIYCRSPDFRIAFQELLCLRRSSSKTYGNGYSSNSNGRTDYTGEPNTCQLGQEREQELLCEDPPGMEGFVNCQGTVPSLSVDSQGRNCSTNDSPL
Sequence of β3 (P13945 whole entry): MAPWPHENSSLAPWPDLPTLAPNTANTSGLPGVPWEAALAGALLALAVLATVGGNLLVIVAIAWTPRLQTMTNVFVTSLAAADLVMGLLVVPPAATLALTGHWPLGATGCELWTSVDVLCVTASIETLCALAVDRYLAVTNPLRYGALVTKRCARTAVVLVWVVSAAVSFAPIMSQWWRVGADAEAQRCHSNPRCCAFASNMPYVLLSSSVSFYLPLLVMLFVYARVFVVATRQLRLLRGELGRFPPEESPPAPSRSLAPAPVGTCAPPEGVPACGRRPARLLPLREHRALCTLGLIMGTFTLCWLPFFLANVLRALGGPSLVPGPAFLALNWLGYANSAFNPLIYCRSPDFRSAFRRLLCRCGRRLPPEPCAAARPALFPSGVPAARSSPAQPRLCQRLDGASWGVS

With `COc1ccccc1OCCNCC(O)COc1cccc2[nH]c3ccccc3c12` (stereo not shown) [Carvedilol, carvedilol], the “Decreased Raw” value is given as “no” in the series with asthmatic mice [1] (15 minutes of administration), “no” in the series on asthmatic mice [1] (2 days of administration) and “yes” in the series with asthmatic mice [1] (28 days of administration). For the same compound, the “airway responsiveness to methacholine provocation (airway resistance, Raw)” value in the series with asthmatic mice [1] (asthmatic mice, acute: single intravenous bolus 15 minutes before methacholine) was “enhanced the airway responsiveness”; in the series with asthmatic mice [1] (asthmatic mice, chronic administration, 28 days (in chow; salbutamol by osmotic minipump)), “does reduce airway hyperresponsiveness; also recorded: reduced the responsiveness of asthmatic mice to methacholine provocation; also recorded: providing protection from airway hyperresponsiveness”. Also, the “shift of methacholine dose-airway response relationship” value with asthmatic mice [1] (asthmatic mice, chronic delivery, 28 days) was “shifts the sensitivity of the responsiveness to methacholine to lower concentrations; also recorded: shifted the methacholine dose-airway response relationship to the left”. Also, the “Increased β2AR density” value is on record as “no” on β2-adrenergic receptor (15 minutes of administration); “no” at β2-adrenergic receptor (2 days of administration); “yes” on β2-adrenergic receptor (28 days of administration); “increase in receptor density” at β2-adrenergic receptor (28 days of administration, listed as carvedilol). At β2-adrenergic receptor (chronic administration), the “increase of the level of β2-adrenergic receptors over the non-treated mice” value is “over 10 fold”. For the same compound, the “Bmax (receptor density)” value on β2-adrenergic receptor (lung membranes, drug treatment 15 Minutes, mean±SEM, n=3-5) was 86.3 ± 19.42 femtomoles of sites per milligram of protein. In addition, on β2-adrenergic receptor (lung membranes, drug treatment 28 Days, mean±SEM, n=3-5), the “βmax (receptor density)” value was 904.1 ± 43.46 femtomoles of sites per milligram of protein. In addition, in the series with asthmatic mice [2], the “bronchoconstriction (airway resistance)” value is “higher bronchoconstriction than these treatments but less than the non-drug treated sensitized and challenged (NTX S/C) mice”. Moreover, in the series on patients with CHF, the “clinical outcome (mortality, benefit over placebo)” value is on record as “significant mortality reduction”.
On to `O=S(=O)(Nc1ccc(CCNC[C@H](O)c2cccnc2)cc1)c1ccc(-c2nc(-c3ccc(C(F)(F)F)cc3)cs2)cc1` [L-796568], for which the “acute increases in plasma fatty acid concentrations” value in [3] is recorded as “completely absent after 9 d of treatment”.
Broadly, the half-life is how long it takes for the measured level to halve. In the case of `Cc1ccc(Cl)c(OCC(O)CNC(C)(C)C)c1` (stereo not shown) [bupranolol], the pKi is 8.77 at β2 and 7.30 at β3. The half-life in series [4] is 1.5 h.
For `CN[C@@H](C)[C@H](O)c1ccccc1` [ephedrine], the “level of thermogenesis relative to the ephedrine-untreated level” value in [5] was 40%.
`OCc1cc(C(O)CNCCCCCCOCCCCc2ccccc2)ccc1O` (stereo not shown) [salmeterol]: the “trial outcome (death rates)” value in series [6] was “stopped due to increased death rates”. Moreover, the “time in which the majority of a dose is eliminated, predominantly in the feces” value in series [7] was not above 72 h.
